The source made the active and inactive calls. No cut-off for these calls is given here.
Assays:
[1] = Inhibition of PI3K/AKT/mTOR signalling pathway in human NCI-H1048 cells assessed as decrease in AKT level at 1.75 to 14 uM incubated for 48 hrs by Western blot analysis; type: cell-based; conditions: dose 1.75-14 µM
NCI-H446 = experiment: Induction of mitochondrial membrane permeability in human NCI-H446 cells assessed as increase in cytochrome C release at 1 to 8 uM incubated for 48 hrs by Western blot analysis; type: functional, cell-based; conditions: dose 1-8 µM

Row | Compound | inhibition [1] | Activity (NCI-H446)
1 | CCC1CCCC(C)N1Cc1cc2c(cc1-c1cc3ccc4c(c3cn1)OCO4)OCO2 (configuration not stated) | Active | 
2 | CC1CC(C)CN(Cc2cc3c(cc2-c2cc4ccc5c(c4cn2)OCO5)OCO3)C1 (configuration not stated) |  | Active

— ChEMBL document CHEMBL6153083, “Synthesis, Structural Modification, and Antismall Cell Lung Cancer Activity of 3-Arylisoquinolines with Dual Inhibitory Activity on Topoisomerase I and II” (J Med Chem, 2025)
